Series [1] concerns the target T1, human glucagon-like peptide 1 receptor (GLP-1R) (Homo sapiens, UniProt P43220).
T1 construct: expressed in transfected cells; host or cells: HEK293 (CRE-HEK293)
In words: GLP-1R receptor-mediated CRE Luc reporter assay (receptor-mediated cAMP synthesis). It is filed as cell-based. The following applies: HEK293-GLP-1R-CRE cells, luciferase reporter. As for the experimental part:
HEK293 cells were infected with lent virus encoding firefly luciferase gene under the control of CRE promoter, as described in the manual (Qiagen, Netherlands) and then were selected using 1 μg/mL puromycin (Life technologies, Carlsbad) for 1 week. The survived cells were named as CRE-HEK293, expanded and then transfected with a G418 selective mammalian expression plasmid encoding human GCGR, GLP-1R, GIPR or GLP-2R. […] Single colony stable cell lines overexpressing both CRE-luciferase and GCGR, GLP-1R, GIPR, or GLP-2R were then established for in vitro activity assays. These four stable cell lines were named as HEK293-GCGR-CRE, HEK293-GLP-1R-CRE, HEK293-GIPR-CRE, and HEK293-GLP-2R-CRE. […] Cells were treated with different peptides in a dose dependent manner.
A general note: In a reporter assay the amount or activity of a reporter protein is the signal.

In series [2] the target is T2, human glucagon receptor (GCGR) (Homo sapiens, UniProt P47871).
T2 construct: expressed in transfected cells; host or cells: HEK293 (CRE-HEK293)
The series can be described thus: GCGR receptor-mediated CRE Luc reporter assay (receptor-mediated cAMP synthesis). It is filed as cell-based. The following applies: HEK293-GCGR-CRE cells, luciferase reporter. The method, then: (§1) CREB responsive luciferase stable HEK 293 cell line overexpressing human glucagon receptor (GCGR), glucagon-like peptide 1 receptor (GLP-1R), glucose-dependent insulinotropic polypeptide receptor (GIPR), glucagon-like peptide 2 receptor (GLP-2R) was generated as follows. HEK293 cells were infected with lent virus encoding firefly luciferase gene under the control of CRE promoter, as described in the manual (Qiagen, Netherlands) and then were selected using 1 μg/mL puromycin (Life technologies, Carlsbad) for 1 week. The survived cells were named as CRE-HEK293, expanded and then transfected with a G418 selective mammalian expression plasmid encoding human GCGR, GLP-1R, GIPR or GLP-2R. In brief, GCGR, GLP-1R, GIPR, or GLP-2R plasmid was transfected into CRE-HEK293 cells using Lipofectamine 2000 and selected with 400 μg/mL geneticin (Life technologies, Carlsbad, CA). Single colony stable cell lines overexpressing both CRE-luciferase and GCGR, GLP-1R, GIPR, or GLP-2R were then established for in vitro activity assays. […] On the next day, 10 μl of Bright-Glo reagent (Promega, Madison, WI) were added into each well and firefly luminescence was determined using an Envision multilabel plate reader (PerkinElmer, Waltham, MA). EC50 of each peptide was calculated using GraphPad Prism 6 software (GraphPad, San Diego, CA). […]

A short description of the next series: in vivo. The following applies: female, CD-1, mouse, 0.3 mg/kg.
A short description of series [3]: In vivo pharmacokinetic (PK) study in CD-1 mice. The following applies: female, CD-1, mouse, plasma, 0.3 mg/kg.
Procedure: Female CD-1 mice obtained from Charles River Limited were used after overnight food deprivation for in vivo PK study. Peptides were dissolved in pH adjusted Phosphate buffered saline (PBS). 100 μL of each peptide (0.3 mg/kg) was administrated into each mouse through either i.v. or s.c route. Food was provided to mice immediately after bleeding at 30 minute. Blood were extracted into heparinized tubes and centrifuged at 3,000×g for 15 min. The resulting supernatant plasma were then stored at −80° C. for activity assays. The concentrations of peptides in plasma at each time point were determined by activity assay described above and in vivo half-life of each peptide was calculated by using Winnonlin Phoenix software (Pharsight Corp, St. Louis, MO).
In series [4] the target is T3, human glucagon-like peptide 2 receptor (GLP-2R) (Homo sapiens, UniProt O95838).
T3 construct: expressed in transfected cells; host or cells: HEK293 (CRE-HEK293)
T3 sequence (O95838 1-553): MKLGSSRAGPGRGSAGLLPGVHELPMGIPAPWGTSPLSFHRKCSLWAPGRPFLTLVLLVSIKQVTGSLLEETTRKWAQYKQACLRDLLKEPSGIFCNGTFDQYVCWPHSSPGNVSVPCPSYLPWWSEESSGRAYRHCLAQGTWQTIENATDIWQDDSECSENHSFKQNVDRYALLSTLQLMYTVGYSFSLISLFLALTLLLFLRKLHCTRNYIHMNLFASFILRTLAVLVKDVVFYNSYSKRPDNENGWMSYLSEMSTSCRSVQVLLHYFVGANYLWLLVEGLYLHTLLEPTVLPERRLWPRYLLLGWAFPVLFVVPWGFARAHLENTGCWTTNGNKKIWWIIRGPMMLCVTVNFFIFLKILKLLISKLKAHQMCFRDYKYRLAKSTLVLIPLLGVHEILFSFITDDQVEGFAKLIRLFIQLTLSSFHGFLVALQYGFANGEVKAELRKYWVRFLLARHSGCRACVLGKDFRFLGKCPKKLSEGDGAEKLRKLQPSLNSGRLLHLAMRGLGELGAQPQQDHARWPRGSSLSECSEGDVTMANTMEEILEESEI
In words: GLP-2R receptor-mediated CRE Luc reporter assay (receptor-mediated cAMP synthesis). It is filed as cell-based. The following applies: HEK293-GLP-2R-CRE cells, luciferase reporter. The method, then:
as §1

Starred links: 1 amine or outer side, 2 acyl side, 3 side chain; linkers in the order of their positions; H or OH if unused. Positions of bridges follow the written chain, without caps; N, C: chain ends. Non-standard residues stand in square brackets, D forms with d. Residues, ends and D or L forms follow the SMILES beside them. Glutaryl = O=C(CCCC(=O)[*:2])[*:1]

T1 sequence (P43220 24-463): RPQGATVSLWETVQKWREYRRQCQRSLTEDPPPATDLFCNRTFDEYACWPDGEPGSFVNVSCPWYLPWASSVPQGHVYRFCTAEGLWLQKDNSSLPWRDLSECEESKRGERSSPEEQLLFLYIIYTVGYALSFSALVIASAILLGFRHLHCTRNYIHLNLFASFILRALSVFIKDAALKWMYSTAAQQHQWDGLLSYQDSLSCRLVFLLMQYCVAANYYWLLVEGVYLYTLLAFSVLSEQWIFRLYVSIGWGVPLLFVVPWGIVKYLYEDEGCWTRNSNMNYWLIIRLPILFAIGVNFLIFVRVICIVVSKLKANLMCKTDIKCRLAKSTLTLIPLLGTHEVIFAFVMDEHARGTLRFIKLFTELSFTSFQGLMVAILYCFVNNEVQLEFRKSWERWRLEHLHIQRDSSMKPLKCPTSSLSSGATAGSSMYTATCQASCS
T2 sequence (P47871 26-477): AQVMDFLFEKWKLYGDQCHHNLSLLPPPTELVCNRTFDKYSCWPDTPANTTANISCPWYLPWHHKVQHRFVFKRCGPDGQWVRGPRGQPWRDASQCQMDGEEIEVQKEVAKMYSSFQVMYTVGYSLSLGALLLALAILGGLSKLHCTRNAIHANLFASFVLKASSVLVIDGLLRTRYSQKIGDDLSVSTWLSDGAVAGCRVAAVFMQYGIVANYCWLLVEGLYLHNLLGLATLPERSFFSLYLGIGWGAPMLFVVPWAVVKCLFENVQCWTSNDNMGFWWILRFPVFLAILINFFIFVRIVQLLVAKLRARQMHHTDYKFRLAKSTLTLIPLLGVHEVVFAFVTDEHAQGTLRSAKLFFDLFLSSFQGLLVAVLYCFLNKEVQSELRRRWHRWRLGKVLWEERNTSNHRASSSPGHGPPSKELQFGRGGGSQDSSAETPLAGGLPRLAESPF

The EC50 is the concentration giving half of the maximal effect. The half-life is the time in which the quantity being followed falls by half. High values mean slow loss, low ones fast loss. For the molecule `CC[C@H](C)[C@@H]1NC(=O)[C@H](Cc2ccccc2)NC(=O)[C@H](CCC(=O)O)NC(=O)[C@H](CCCCN)NC(=O)[C@H](C)NC(=O)[C@H](C)NC(=O)[C@@H](NC(=O)[C@H](CCC(=O)O)NC(=O)[C@H](CC(=O)O)NC(=O)[C@H](CC(C)C)NC(=O)[C@H](Cc2ccc(O)cc2)NC(=O)[C@H](CCCCN)NC(=O)[C@H](CO)NC(=O)[C@H](Cc2ccc(O)cc2)NC(=O)[C@H](CC(=O)O)NC(=O)[C@H](CO)NC(=O)[C@@H](NC(=O)[C@H](Cc2ccccc2)NC(=O)[C@@H](NC(=O)CNC(=O)[C@H](CCC(N)=O)NC(=O)[C@@H](CO)NC(=O)[C@@H](N)Cc2c[nH]cn2)[C@@H](C)O)[C@@H](C)O)CCCCNC(=O)CN(C(=O)CCNC(=O)CCOCCOCCOCCNC(=O)CCCCCCCCCCCCCCCCC(=O)O)CC(=O)NCCCC[C@@H](C(=O)N[C@@H](Cc2c[nH]c3ccccc23)C(=O)N[C@@H](CC(C)C)C(=O)N[C@@H](CC(C)C)C(=O)N[C@@H](CCCNC(=N)N)C(=O)N[C@@H](C)C(N)=O)NC1=O` [mTA4], the EC50 in series [1] turned out to be 0.03 nM; in series [2] it was 0.15 nM. Besides, the half-life is 5.7 h in the series “in vivo” (iv) and 8 h in the series “in vivo” (sc).
On to `CC[C@H](C)[C@@H]1NC(=O)[C@H](Cc2ccccc2)NC(=O)[C@H](CCC(=O)O)NC(=O)[C@H](CCCCN)NC(=O)[C@H](C)NC(=O)[C@H](C)NC(=O)[C@@H](NC(=O)[C@H](CCC(=O)O)NC(=O)[C@H](CC(=O)O)NC(=O)[C@H](CC(C)C)NC(=O)[C@H](Cc2ccc(O)cc2)NC(=O)[C@H](CCCCN)NC(=O)[C@H](CO)NC(=O)[C@H](Cc2ccc(O)cc2)NC(=O)[C@H](CC(=O)O)NC(=O)[C@H](CO)NC(=O)[C@@H](NC(=O)[C@H](Cc2ccccc2)NC(=O)[C@@H](NC(=O)CNC(=O)[C@H](CCC(N)=O)NC(=O)[C@@H](CO)NC(=O)[C@@H](N)Cc2c[nH]cn2)[C@@H](C)O)[C@@H](C)O)CCCCNC(=O)CCCC(=O)NCCCC[C@@H](C(=O)N[C@@H](Cc2c[nH]c3ccccc23)C(=O)N[C@@H](CC(C)C)C(=O)N[C@@H](CC(C)C)C(=O)N[C@@H](CC(N)=O)C(=O)NCC(=O)NCC(=O)N2CCC[C@H]2C(=O)N[C@@H](CO)C(=O)N[C@@H](CO)C(=O)NCC(=O)N[C@@H](C)C(=O)N2CCC[C@H]2C(=O)N2CCC[C@H]2C(=O)N2CCC[C@H]2C(=O)N[C@@H](CO)C(N)=O)NC1=O` [mTA5] (H-H[dS]QGTFTSDYSKYLDEKAAKEFIKWLLNGGPSSGAPPPS-NH2; linker 17-24 via Glutaryl), for which the EC50 is 0.02 nM in series [1] and 0.07 nM in series [2].
On to `CCCCCCCCCCCCCC(=O)NCCOCCOCCOCCC(=O)NCCC(=O)N1CC(=O)NCCCC[C@@H](C(=O)N[C@@H](C)C(=O)N[C@@H](CCCNC(=N)N)C(=O)N[C@@H](CC(=O)O)C(=O)N[C@@H](Cc2ccccc2)C(=O)N[C@H](C(=O)N[C@@H](CC(N)=O)C(=O)N[C@@H](Cc2c[nH]c3ccccc23)C(=O)N[C@@H](CC(C)C)C(=O)N[C@H](C(=O)N[C@@H](CCC(N)=O)C(=O)N[C@H](C(=O)N[C@@H](CCCCN)C(=O)N[C@H](C(=O)N[C@H](C(=O)N[C@@H](CC(=O)O)C(N)=O)[C@@H](C)O)[C@@H](C)CC)[C@@H](C)O)[C@@H](C)CC)[C@@H](C)CC)NC(=O)[C@H](CC(C)C)NC(=O)[C@H](CC(N)=O)NC(=O)[C@H](CC(=O)O)NC(=O)[C@H](CC(C)C)NC(=O)[C@H]([C@@H](C)CC)NC(=O)[C@H]([C@@H](C)O)NC(=O)[C@@H](NC(=O)[C@H](CCSC)NC(=O)[C@H](CCC(=O)O)NC(=O)[C@H](CC(=O)O)NC(=O)[C@H](CO)NC(=O)[C@H](Cc2ccccc2)NC(=O)[C@H](CO)NC(=O)CNC(=O)[C@H](CC(=O)O)NC(=O)CNC(=O)[C@@H](N)Cc2c[nH]cn2)CCCCNC(=O)C1` [mTA7], for which the half-life in series [3] (iv) worked out at 3 h; in series [3] (sc) it was 4 h. In addition, in series [4], the EC50 came to 0.068 nM.

Values taken from patent US20250235508A1, “MODIFIED THERAPEUTIC AGENTS AND COMPOSITIONS THEREOF” (THE SCRIPPS RESEARCH INSTITUTE, priority 2015, published 2025).
